Legend:
salmon sperm DNA [1] = experiment: Spectrofluorimetry of the pyrylium compound with and without salmon sperm DNA; assay type: binding; conditions: excitation 550 nm; for fluorescence of solution not containing DNA: no DNA; for fluorescence wavelength of solution containing DNA (fluoresces intensely): with salmon sperm DNA
Procedure: A fraction of Solution IA and a fraction of Solution IB were diluted so that the concentration of Compound 3 was the same in these diluted solutions. The diluted solutions were subjected to conventional spectrofluorimetry by excitation light having a wavelength of 550 nm.
A fraction of Solution IIA and a fraction of Solution IIB were diluted so that the concentration of Compound 6 was the same in these diluted solutions. The diluted solutions were subjected to conventional spectrofluorimetry by excitation light having a wavelength of 550 nm.

salmon sperm DNA [2] = experiment: Absorption spectrophotometry of the pyrylium compound free and mixed with salmon sperm DNA; assay type: binding; conditions: DNA 50 μg/ml, compound 3×10^−5 M, 10 mM phosphate buffer pH 7.0
Procedure: Compound 3 prepared in Example 1 (2-(3-carboxypropyl)-4,6-bis(4-N,N-dimethylaminophenyl)pyrylium iodide) was dissolved into a 10 mM phosphate buffer solution (pH 7.0) to prepare Solution IA. A fraction of Solution IA was diluted to a final concentration of 3×10^−5 M, and the diluted solution was subjected to absorption spectrophotometry. The absorption spectrum is denoted by (A) in FIG. 1.
A DNA solution was prepared using salmon sperm DNA (mfd. by Sigma-Aldrich Co.) which was adequately purified according to a conventional method. A fraction of the DNA solution and a fraction of Solution IA were mixed to prepare Solution IB in which the final DNA concentration was 50 μg/ml and the final concentration of Compound 3 was 3×10^−5 M. A fraction of Solution IB was subjected to absorption spectrophotometry. The absorption spectrum is denoted by (B) in FIG. 1.
With reference to spectrum (A) of Compound 3 and spectrum (B) of Solution IB in FIG. 1, the absorption bands of Solution IB are shifted to longer wavelengths by 30 nm and absorbance is decreased due to interaction between Compound 3 and the DNA. These changes can be attributed to the intercalative characteristics of Compound 3.
Compound 6 prepared in Example 3 (2-(2-carboxyethyl)-4,6-bis(4-N,N-dimethylaminophenyl)pyrylium iodide) was dissolved into a 10 mM phosphate buffer solution (pH 7.0) to prepare Solution IIA. A fraction of Solution IIA was diluted to a final concentration of 3×10^−5 M, and the diluted solution was subjected to absorption spectrophotometry. The absorption spectrum is denoted by (A) in FIG. 4.
A DNA solution was prepared using salmon sperm DNA (Sigma-Aldrich Co.) which was adequately purified according to a conventional method. A fraction of the DNA solution and a fraction of Solution IIA were mixed to prepare Solution IIB in which the final DNA concentration was 50 μg/ml and the final concentration of Compound 6 was 3×10^−5 M. A fraction of Solution IIB was subjected to absorption spectrophotometry. The absorption spectrum is denoted by (B) in FIG. 4.
With reference to spectrum (A) of Compound 6 and spectrum (B) of Solution IIB in FIG. 4, the absorption bands of Solution IIB are shifted to longer wavelengths by 30 nm and absorbance is decreased due to interaction between Compound 6 and the DNA. These changes can be attributed to intercalative characteristics of Compound 6.

Row | Compound | fluorescence of solution not containing DNA (salmon sperm DNA [1]) | fluorescence wavelength of solution containing DNA (fluoresces intensely) (salmon sperm DNA [1]) | change of absorbance due to interaction with DNA (salmon sperm DNA [2]) | shift of absorption bands to longer wavelengths due to interaction with DNA (salmon sperm DNA [2])
1 | CN(C)c1ccc(-c2cc(CCC(=O)O)[o+]c(-c3ccc(N(C)C)cc3)c2)cc1.[I-] [Compound 6, 2-(2-carboxyethyl)-4,6-bis(4-N,N-dimethylaminophenyl)pyrylium iodide] | does not fluoresce | ~640 nm | decreased | 30 nm
2 | CN(C)c1ccc(-c2cc(CCCC(=O)O)[o+]c(-c3ccc(N(C)C)cc3)c2)cc1.[I-] [Compound 3, 2-(3-carboxypropyl)-4,6-bis(4-N,N-dimethylaminophenyl)pyrylium iodide] | does not fluoresce | ~640 nm | decreased | 30 nm

Source: patent US6384237B1, “Pyrylium compound, process for making the same, nucleic acid stain, and labeled nucleic acid” (Canon Kabushiki Kaisha, priority 1999, dated 2002)
